{"source": "the C3SDB collision cross section collection", "note": "“And” between values parts separate entries of the source, which are not always exact repeats. Equal entries are not always repeated.", "data": [{"conditions": "[M+Na]+; instrument: DT; stepped-field", "values": [{"smiles": "CCCCCCCCCCCCC=CC[C@@H](O)[C@H](CO[C@@H]1O[C@H](CO)[C@@H](O)C(O)C1O)NC(=O)CC=CCCCCCCCCCCCCCCCCCC", "note": "(some centres not stated) [GlcCer(40:2)]", "collision cross section (N2)": "297.1 Å²"}, {"smiles": "CCCCCCCCCCCCC=CC[C@@H](O)[C@H](CO[C@@H]1O[C@H](CO)[C@@H](O)C(O)C1O)NC(=O)CC=CCCCCCCCCCCCCCCCCCCCCC", "note": "(some centres not stated) [GlcCer(43:2)]", "collision cross section (N2)": "307.8 Å²"}, {"smiles": "CCCCCCCCCCCCC=CC[C@@H](O)[C@H](CO[C@@H]1O[C@H](CO)[C@@H](O)C(O)C1O)NC(=O)CC=CCCCCCCCCCCCCCCCCCCCCCC", "note": "(some centres not stated) [GlcCer(44:2)]", "collision cross section (N2)": "315.3 Å²"}, {"smiles": "CCCCCCCCCCCCC=CC[C@@H](O)[C@H](CO[C@@H]1O[C@H](CO)[C@@H](O)C(O)C1O)NC(=O)CC=CCC=CCCCCCCCCCCCCCCCCCCC", "note": "(some centres not stated) [GlcCer(44:3)]", "collision cross section (N2)": "310.7 Å²"}, {"smiles": "CC(=O)NC1C(OC2C(O)C(CO)OC(OC3C(CO)OC(O)C(O)C3O)C2O)OC(CO)C(O)C1OC1OC(CO)C(O)C(O)C1O", "note": "(configuration not stated) [HexNAc-(Hex)3]", "collision cross section (N2)": "244 Å²"}, {"smiles": "CC(=O)N[C@H]1[C@H](OC2[C@@H](O)[C@H](O[C@@H]([C@H](O[C@@H]3O[C@@H](C)[C@@H](O)[C@@H](O)[C@@H]3O)[C@@H](O)C=O)[C@H](O)CO)O[C@H](CO)[C@@H]2O)O[C@H](CO)[C@@H](O[C@@H]2O[C@@H](C)[C@@H](O)[C@@H](O)[C@@H]2O)[C@@H]1O[C@@H]1O[C@H](CO)[C@H](O)[C@H](O)[C@H]1O", "note": "(some centres not stated) [Lacto-N-Difucohexaose II]", "collision cross section (N2)": "291.2 Å² and 306.3 Å²"}, {"smiles": "OC[C@H]1O[C@H](O[C@H]2[C@H](O)[C@@H](O)[C@@H](O[C@H]3[C@H](O)[C@@H](O)[C@@H](O[C@H]4[C@H](O)[C@@H](O)[C@@H](O[C@H]5[C@H](O)[C@@H](O)[C@@H](O[C@H]6[C@H](O)[C@@H](O)[C@@H](O)O[C@@H]6CO)O[C@@H]5CO)O[C@@H]4CO)O[C@@H]3CO)O[C@@H]2CO)[C@H](O)[C@@H](O)[C@@H]1O", "note": "[Maltohexaose]", "collision cross section (N2)": "286.4 Å²"}]}, {"conditions": "[M+H]+; instrument: TW; Major Mix IMS/Tof Calibration Kit (Waters)", "units": {"collision cross section (N2)": "Å²"}, "values": [{"smiles": "Clc1ccc2nsnc2c1NC1=NCCN1", "note": "[Tizanidine]", "collision cross section (N2)": 149.4}, {"smiles": "CCCCNC(=O)NS(=O)(=O)c1ccc(C)cc1", "note": "[Tolbutamide]", "collision cross section (N2)": 163}, {"smiles": "Cc1ccc(O)c([C@H](CCN(C(C)C)C(C)C)c2ccccc2)c1", "note": "[Tolterodine]", "collision cross section (N2)": 182.1}, {"smiles": "CN(C)CC1CCCCC1(O)c1cccc(O)c1", "note": "(configuration not stated) [Tramadol-M O-desmethyl]", "collision cross section (N2)": 157.4}, {"smiles": "COc1cccc([C@@]2(O)CCCC[C@@H]2CN(C)C)c1", "note": "[Tramadol]", "collision cross section (N2)": 161.4}, {"smiles": "CCOC(=O)[C@H](CCc1ccccc1)N[C@@H](C)C(=O)N1[C@H](C(=O)O)C[C@H]2CCCC[C@@H]21", "note": "[Trandolapril]", "collision cross section (N2)": 203.5}, {"smiles": "NC1CC1c1ccccc1", "note": "(configuration not stated) [Tranylcypromine]", "collision cross section (N2)": 127.6}, {"smiles": "Cc1nnc2n1-c1ccc(Cl)cc1C(c1ccccc1Cl)=NC2", "note": "[Triazolam]", "collision cross section (N2)": 172.4}, {"smiles": "CC(C)(C)NCC(O)c1ccccc1Cl", "note": "(configuration not stated) [Tulobuterol]", "collision cross section (N2)": 150.5}, {"smiles": "CCCc1nc(C)c2c(=O)nc(-c3cc(S(=O)(=O)N4CCN(CC)CC4)ccc3OCC)[nH]n12", "note": "[Vardenafil]", "collision cross section (N2)": 225.8}, {"smiles": "COc1ccc(C(CN(C)C)C2(O)CCCCC2)cc1", "note": "(configuration not stated) [Venlafaxine]", "collision cross section (N2)": 171.6}, {"smiles": "COc1ccc(CCN(C)CCCC(C#N)(c2ccc(OC)c(OC)c2)C(C)C)cc1OC", "note": "(configuration not stated) [Verapamil]", "collision cross section (N2)": 210.2}, {"smiles": "CC(=O)CC(c1ccccc1)c1c(O)c2ccccc2oc1=O", "note": "(configuration not stated) [Warfarin]", "collision cross section (N2)": 166.8}, {"smiles": "CCN(C(C)=O)c1cccc(-c2ccnc3c(C#N)cnn23)c1", "note": "[Zaleplon]", "collision cross section (N2)": 173.5}, {"smiles": "Cc1nn(C)c2c1C(c1ccccc1F)=NCC(=O)N2C", "note": "[Zolazepam]", "collision cross section (N2)": 162.3}, {"smiles": "CN(C)CCc1c[nH]c2ccc(C[C@H]3COC(=O)N3)cc12", "note": "[Zolmitriptan]", "collision cross section (N2)": 160.6}, {"smiles": "Cc1ccc(-c2nc3ccc(C(=O)O)cn3c2CC(=O)N(C)C)cc1", "note": "[Zolpidem-M 2]", "collision cross section (N2)": 181.4}, {"smiles": "Cc1ccc(-c2nc3ccc(C)cn3c2CC(=O)N(C)C)cc1", "note": "[Zolpidem]", "collision cross section (N2)": 177.2}, {"smiles": "OCCN1CCN(CC/C=C2/c3ccccc3Sc3ccc(Cl)cc32)CC1", "note": "[Zuclopenthixol]", "collision cross section (N2)": 194}, {"smiles": "Clc1cccc(N2CCNCC2)c1", "note": "[mCPP]", "collision cross section (N2)": 144.3}]}]}
